From patent publication US10660877B2 (BRISTOL-MYERS SQUIBB COMPANY, priority 2016, dated 2020)
Like-named read-outs stand apart in the source and are kept apart here.

How the values were obtained:
human TLR8 = human TLR8 (Homo sapiens (Human), UniProt Q9NR97); experiment: TLR8 inhibition reporter assay (HEK-Blue cells, SEAP reporter, R848 stimulation);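 further: compounds tested from 0.05 nM to 50 µM, 22 h at 37 °C, SEAP measured with HEK-Blue Detection, inhibition relative to agonist plus DMSO versus a known inhibitor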
human TLR9 = human TLR9 (Homo sapiens (Human), UniProt Q9NR96); experiment: TLR9 inhibition reporter assay (HEK-Blue cells, SEAP reporter, ODN2006 stimulation);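 further: compounds tested over 0.05 nM to 50 µM, 22 h incubation, inhibition taken as SEAP signal drop from agonist plus DMSO wells toward a known inhibitor control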
human TLR7 = human TLR7 (Homo sapiens (Human), UniProt Q9NYK1); experiment: TLR7 inhibition reporter assay (HEK-Blue cells, SEAP reporter, gardiquimod stimulation); format: cell-based
[1] = read-out: TLR8 IC50, HEK-Blue cells overexpressing human TLR8, R848 15.9 μM
[2] = read-out: TLR9 IC50, HEK-Blue cells overexpressing human TLR9, ODN2006 5 nM
[3] = HEK-Blue cells overexpressing human TLR7, gardiquimod 7.5 μM
[4] = TLR8 IC50, HEK-Blue cells overexpressing human TLR8, R848 15.9 μM
[5] = TLR9 IC50, HEK-Blue cells overexpressing human TLR9, ODN2006 5 nM

Chain of human TLR8 (Q9NR97 27-1041): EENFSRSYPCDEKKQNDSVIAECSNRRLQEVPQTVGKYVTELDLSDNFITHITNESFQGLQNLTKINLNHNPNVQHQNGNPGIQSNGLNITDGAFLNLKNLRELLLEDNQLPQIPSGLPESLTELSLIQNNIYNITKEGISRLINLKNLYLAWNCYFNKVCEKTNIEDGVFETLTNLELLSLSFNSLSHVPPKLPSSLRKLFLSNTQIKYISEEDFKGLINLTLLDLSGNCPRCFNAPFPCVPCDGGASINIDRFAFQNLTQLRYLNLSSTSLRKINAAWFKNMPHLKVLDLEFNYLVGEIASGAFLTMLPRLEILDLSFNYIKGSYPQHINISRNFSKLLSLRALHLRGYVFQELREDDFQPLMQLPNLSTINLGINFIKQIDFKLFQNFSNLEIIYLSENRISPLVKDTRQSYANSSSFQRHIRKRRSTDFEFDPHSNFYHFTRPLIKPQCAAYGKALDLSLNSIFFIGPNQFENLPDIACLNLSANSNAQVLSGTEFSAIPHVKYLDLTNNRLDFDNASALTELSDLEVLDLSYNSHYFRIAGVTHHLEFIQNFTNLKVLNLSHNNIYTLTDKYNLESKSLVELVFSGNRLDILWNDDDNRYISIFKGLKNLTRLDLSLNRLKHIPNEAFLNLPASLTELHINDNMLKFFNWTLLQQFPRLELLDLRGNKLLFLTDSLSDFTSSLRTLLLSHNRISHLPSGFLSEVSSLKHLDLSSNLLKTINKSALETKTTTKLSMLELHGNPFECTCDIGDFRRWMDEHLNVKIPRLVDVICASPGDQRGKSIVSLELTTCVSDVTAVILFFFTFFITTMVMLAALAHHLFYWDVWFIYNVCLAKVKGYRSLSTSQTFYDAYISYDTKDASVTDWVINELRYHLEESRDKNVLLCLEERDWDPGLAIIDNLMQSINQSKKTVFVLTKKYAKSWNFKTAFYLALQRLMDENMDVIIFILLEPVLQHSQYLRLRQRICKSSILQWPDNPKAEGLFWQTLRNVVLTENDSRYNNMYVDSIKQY
Chain of human TLR9 (Q9NR96 26-1032): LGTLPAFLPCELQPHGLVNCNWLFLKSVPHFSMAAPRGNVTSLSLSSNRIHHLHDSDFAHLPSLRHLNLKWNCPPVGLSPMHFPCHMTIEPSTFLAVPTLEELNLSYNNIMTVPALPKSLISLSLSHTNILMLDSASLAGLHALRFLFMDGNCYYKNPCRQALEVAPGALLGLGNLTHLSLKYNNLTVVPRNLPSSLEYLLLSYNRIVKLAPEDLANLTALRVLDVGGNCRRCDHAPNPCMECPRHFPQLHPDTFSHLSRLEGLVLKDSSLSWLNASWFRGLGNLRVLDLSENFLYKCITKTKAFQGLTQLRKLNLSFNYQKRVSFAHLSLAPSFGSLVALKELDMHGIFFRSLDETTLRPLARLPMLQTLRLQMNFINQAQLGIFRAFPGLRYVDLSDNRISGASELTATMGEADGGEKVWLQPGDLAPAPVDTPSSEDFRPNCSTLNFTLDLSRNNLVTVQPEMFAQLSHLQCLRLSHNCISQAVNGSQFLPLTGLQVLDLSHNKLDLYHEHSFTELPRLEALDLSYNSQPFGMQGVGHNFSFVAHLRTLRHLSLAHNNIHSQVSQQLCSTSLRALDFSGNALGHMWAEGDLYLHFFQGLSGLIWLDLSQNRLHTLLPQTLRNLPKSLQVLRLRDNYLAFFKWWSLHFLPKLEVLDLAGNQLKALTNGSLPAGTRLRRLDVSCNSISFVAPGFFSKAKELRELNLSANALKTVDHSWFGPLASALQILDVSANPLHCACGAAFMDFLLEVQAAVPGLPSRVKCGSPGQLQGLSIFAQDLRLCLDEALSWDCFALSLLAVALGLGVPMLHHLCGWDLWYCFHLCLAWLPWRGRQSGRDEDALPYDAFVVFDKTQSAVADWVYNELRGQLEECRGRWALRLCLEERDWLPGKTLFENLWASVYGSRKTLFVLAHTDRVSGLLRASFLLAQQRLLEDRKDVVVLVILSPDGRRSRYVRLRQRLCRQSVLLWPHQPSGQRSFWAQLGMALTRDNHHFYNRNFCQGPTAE
Chain of human TLR7 (Q9NYK1 27-1049): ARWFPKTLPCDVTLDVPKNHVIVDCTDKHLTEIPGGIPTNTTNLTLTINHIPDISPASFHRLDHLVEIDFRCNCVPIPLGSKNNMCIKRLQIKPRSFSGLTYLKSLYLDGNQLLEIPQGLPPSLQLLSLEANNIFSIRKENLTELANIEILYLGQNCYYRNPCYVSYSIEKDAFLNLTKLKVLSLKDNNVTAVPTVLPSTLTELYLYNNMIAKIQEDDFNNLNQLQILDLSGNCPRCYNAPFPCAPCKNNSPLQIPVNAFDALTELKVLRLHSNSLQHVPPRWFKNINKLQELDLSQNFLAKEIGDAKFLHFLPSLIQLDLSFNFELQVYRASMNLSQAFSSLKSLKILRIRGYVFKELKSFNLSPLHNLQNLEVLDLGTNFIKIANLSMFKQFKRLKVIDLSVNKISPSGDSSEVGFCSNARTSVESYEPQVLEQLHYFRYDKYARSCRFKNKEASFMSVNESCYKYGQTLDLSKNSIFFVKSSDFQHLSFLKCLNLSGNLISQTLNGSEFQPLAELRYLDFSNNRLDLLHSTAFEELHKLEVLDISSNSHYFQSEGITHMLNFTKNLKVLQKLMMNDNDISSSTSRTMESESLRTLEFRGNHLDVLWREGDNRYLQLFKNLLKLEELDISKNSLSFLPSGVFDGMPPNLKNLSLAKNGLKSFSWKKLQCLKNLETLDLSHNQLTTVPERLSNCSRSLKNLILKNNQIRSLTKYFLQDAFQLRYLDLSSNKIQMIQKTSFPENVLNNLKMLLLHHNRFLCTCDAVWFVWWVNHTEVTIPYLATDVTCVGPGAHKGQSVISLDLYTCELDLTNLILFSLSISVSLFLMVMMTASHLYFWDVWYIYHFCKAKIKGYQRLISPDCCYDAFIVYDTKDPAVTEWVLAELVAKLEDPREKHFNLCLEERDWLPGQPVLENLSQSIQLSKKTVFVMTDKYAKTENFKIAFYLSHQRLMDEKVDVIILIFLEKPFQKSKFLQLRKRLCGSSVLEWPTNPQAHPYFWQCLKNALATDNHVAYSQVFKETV

Compound | IC50 (human TLR8; [1]) [nM] | IC50 (human TLR9; [2]) [nM] | IC50 (human TLR7; [3]) [nM] | IC50 (human TLR8; read-out: TLR8 IC50, HEK-Blue cells, R848 15.9 μM) [nM] | IC50 (human TLR9; read-out: TLR9 IC50, HEK-Blue cells, ODN2006 5 nM) [nM] | IC50 (human TLR7; HEK-Blue cells, gardiquimod 7.5 μM) [nM] | IC50 (human TLR8; [4]) [nM] | IC50 (human TLR9; [5]) [nM]
Cc1cc(-c2[nH]c3ccc(C4CCN(C5CCOC5)CC4)cc3c2C(C)C)c(C)cn1 (stereo not drawn) [Example 728, 2-(2,5-dimethylpyridin-4-yl)-3-isopropyl-5-(1-(tetrahydrofuran-3-yl)piperidin-4-yl)-1H-indole] | 1.1 | 1340 | 6.7 |  |  |  |  | 
Cc1cc(-c2[nH]c3cc(F)c(C4CCN(C5CCOCC5)CC4)cc3c2C(C)C)cc(C)n1 [Example 831, 2-(2,6-dimethylpyridin-4-yl)-6-fluoro-3-isopropyl-5-(1-(tetrahydro-2H-pyran-4-yl)piperidin-4-yl)-1H-indole] |  |  |  | 11.6 | 567 | 6.2 |  | 
Cc1cc(-c2[nH]c3ccc(C4CCN(CC(=O)N5CCCC(O)C5)CC4)cc3c2C(C)C)cc(C)n1 (stereo not drawn) [Example 277, 2-(4-(2-(2,6-dimethylpyridin-4-yl)-3-isopropyl-1H-indol-5-yl)piperidin-1-yl)-1-(3-hydroxypiperidin-1-yl)ethan-1-one] | 6.6 | 201 | 2 |  |  |  |  | 
Cc1cc(-c2[nH]c3ccc(C4CCN(Cc5c[nH]nc5C)CC4)cc3c2C(C)C)cc(C)n1 [Example 439, 2-(2,6-dimethylpyridin-4-yl)-3-isopropyl-5-(1-((3-methyl-1H-pyrazol-4-yl)methyl)piperidin-4-yl)-1H-indole] | 6.3 | 202 | 7.7 |  |  |  |  | 
Cc1cc(-c2[nH]c3ccc(C4CCN(C(C)C)CC4)cc3c2C(C)C)c(C)cn1 [Example 641, 2-(2,5-dimethylpyridin-4-yl)-3-isopropyl-5-(1-isopropylpiperidin-4-yl)-1H-indole] | 9.7 | 2670 | 33 |  |  |  |  | 
Cc1cc(-c2[nH]c3ccc(C4CCN(C(=O)C5CC(=O)N(C)C5)CC4)cc3c2C(C)C)cc(C)n1 (stereo not drawn) [Example 102, 4-(4-(2-(2,6-dimethylpyridin-4-yl)-3-isopropyl-1H-indol-5-yl)piperidine-1-carbonyl)-1-methylpyrrolidin-2-one] |  |  | 7.5 |  |  |  | 72.6 | 36200
Cc1cc(-c2[nH]c3ccc(C4CCN(CC5CC5)CC4)cc3c2C2CC2)cc(C)n1 [Example 667, 3-cyclopropyl-5-(1-(cyclopropylmethyl)piperidin-4-yl)-2-(2,6-dimethylpyridin-4-yl)-1H-indole] | 32.1 | 86 | 19 |  |  |  |  | 
Cc1cc(-c2[nH]c3ccc(C4CCN(CC(C)(C)C)CC4)cc3c2C(C)C)cc(C)n1 [Example 470, 2-(2,6-dimethylpyridin-4-yl)-3-isopropyl-5-(1-neopentylpiperidin-4-yl)-1H-indole] | 23.8 | 532 | 5.9 |  |  |  |  | 
Cc1cc(-c2[nH]c3ccc(C4CCN(CC(=O)N5CCOCC5)CC4)cc3c2C(C)C)cc(C)n1 [Example 232, 2-(4-(2-(2,6-dimethylpyridin-4-yl)-3-isopropyl-1H-indol-5-yl)piperidin-1-yl)-1-morpholinoethan-1-one] |  |  | 3.6 |  |  |  | 7.7 | 627
Cc1cc(-c2[nH]c3ccc(C4CCN(Cc5cn[nH]c5)CC4)cc3c2C(C)C)cc(C)n1 [Example 438, 5-(1-((1H-pyrazol-4-yl)methyl)piperidin-4-yl)-2-(2,6-dimethylpyridin-4-yl)-3-isopropyl-1H-indole] | 3.1 | 69 | 1.2 |  |  |  |  | 

Continued by falling IC50 (human TLR7; [3]), values first:

IC50 (human TLR8; [1]) [nM] | IC50 (human TLR9; [2]) [nM] | IC50 (human TLR7; [3]) [nM] | IC50 (human TLR8; read-out: TLR8 IC50, HEK-Blue cells, R848 15.9 μM) [nM] | IC50 (human TLR9; read-out: TLR9 IC50, HEK-Blue cells, ODN2006 5 nM) [nM] | IC50 (human TLR7; HEK-Blue cells, gardiquimod 7.5 μM) [nM] | IC50 (human TLR8; [4]) [nM] | IC50 (human TLR9; [5]) [nM] | Compound
> 50000 | 69 | 4030 |  |  |  |  |  | CNCCN1CCC(c2ccc3[nH]c(-c4ccnc(N5CCN(C)CC5)c4)c(C)c3c2)CC1 [Example 746, N-methyl-2-(4-(3-methyl-2-(2-(4-methylpiperazin-1-yl)pyridin-4-yl)-1H-indol-5-yl)piperidin-1-yl)ethan-1-amine]
40.9 | 1100 | 674 |  |  |  |  |  | CCc1c(-c2ccnc(OC)c2)[nH]c2ccc(C3CCN([C@H]4CCCNCC4)CC3)cc12 [Example 794, (S)-5-(1-(azepan-4-yl)piperidin-4-yl)-3-ethyl-2-(2-methoxypyridin-4-yl)-1H-indole]
195 | 3540 | 590 |  |  |  |  |  | CC(C)c1c(-c2ccncc2F)[nH]c2ccc(C3CCNCC3)cc12 [Example 7, 2-(3-fluoropyridin-4-yl)-3-isopropyl-5-(piperidin-4-yl)-1H-indole]
181 | 114 | 277 |  |  |  |  |  | CCc1c(-c2ccnc(N)c2)[nH]c2ccc(C3CCNCC3)cc12 [Example 69, 4-(3-ethyl-5-(piperidin-4-yl)-1H-indol-2-yl) pyridin-2-amine]
79.1 | 2140 | 33.4 |  |  |  |  |  | CCc1cc(-c2[nH]c3ccc(C4CCNCC4)cc3c2C(C)C)cc(OC)n1 [Example 487, 2-(2-ethyl-6-methoxypyridin-4-yl)-3-isopropyl-5-(piperidin-4-yl)-1H-indole]
3.1 | 1940 | 30.9 |  |  |  |  |  | Cc1cc(-c2[nH]c3ccc(C4CCN(CC(O)C(F)(F)F)CC4)cc3c2C(C)C)ccn1 (stereo not drawn) [Example 661, 1,1,1-trifluoro-3-(4-(3-isopropyl-2-(2-methylpyridin-4-yl)-1H-indol-5-yl)piperidin-1-yl)propan-2-ol]
18.9 | 1150 | 16.5 |  |  |  |  |  | Cc1cc(-c2[nH]c3ccc(C4CCN(C(=O)C5CCN(C(C)C)CC5)CC4)cc3c2C(C)C)ccn1 [Example 563, (4-(3-isopropyl-2-(2-methylpyridin-4-yl)-1H-indol-5-yl)piperidin-1-yl)(1-isopropylpiperidin-4-yl)methanone]
10.7 | 548 | 13.6 |  |  |  |  |  | Cc1cc(-c2[nH]c3ccc(C4CCNCC4)cc3c2CC2CC2)ccn1 [Example 89, 3-(cyclopropylmethyl)-2-(2-methylpyridin-4-yl)-5-(piperidin-4-yl)-1H-indole]
2.3 | 780 | 11.9 |  |  |  |  |  | Cc1cc(-c2[nH]c3ccc(C4CCN(CC(O)C(F)(F)F)CC4)cc3c2C(C)C)cc(C)n1 (stereo not drawn) [Example 316, 3-(4-(2-(2,6-dimethylpyridin-4-yl)-3-isopropyl-1H-indol-5-yl)piperidin-1-yl)-1,1,1-trifluoropropan-2-ol]
4.4 | 413 | 7.4 |  |  |  |  |  | COCCOCCN1CCC(c2ccc3[nH]c(-c4cc(C)nc(C)c4)c(C(C)C)c3c2)CC1 [Example 324, 2-(2,6-dimethylpyridin-4-yl)-3-isopropyl-5-(1-(2-(2-methoxyethoxy)ethyl)piperidin-4-yl)-1H-indole]
 |  | 4.6 |  |  |  | 2.4 | 234 | Cc1cc(-c2[nH]c3ccc(C4CCN(Cc5cccnc5)CC4)cc3c2C(C)C)cc(C)n1 [Example 433, 2-(2,6-dimethylpyridin-4-yl)-3-isopropyl-5-(1-(pyridin-3-ylmethyl)piperidin-4-yl)-1H-indole]
6.2 | 3040 | 2.6 |  |  |  |  |  | Cc1cc(-c2[nH]c3ccc(C4CCN(C(=O)CN(C)C)CC4)cc3c2C(C)C)c(F)cn1 [Example 586, 2-(dimethylamino)-1-(4-(2-(5-fluoro-2-methylpyridin-4-yl)-3-isopropyl-1H-indol-5-yl)piperidin-1-yl)ethan-1-one]
3 | 1290 | 1.5 |  |  |  |  |  | Cc1cc(-c2[nH]c3ccc(C4CCN(CC(N)=O)CC4)cc3c2C(C)C)c(F)cn1 [Example 652, 2-(4-(2-(5-fluoro-2-methylpyridin-4-yl)-3-isopropyl-1H-indol-5-yl)piperidin-1-yl)acetamide]
